How the values were obtained:
fruit flies = experiment: Longevity comparison of erythritol with other human-safe sweet alcohols; assay type: in vivo, Drosophila melanogaster; details: 1 M sweetener in standard fly food, 17 days; for longevity compared to sucrose control: log rank test
Description: An experiment was conducted to compare the effectiveness of erythritol with other human-safe sweet alcohols: D-mannitol, maltitol, sucrose, and xylitol. The concentration of all sweet alcohols were 1M. Flies were raised for 17 days on standard fly food that contained 1 M concentrations of each sweetener treatment. Death of flies was recorded daily as before; each treatment was replicated on three vials of 10 flies each for 30 subjects/treatment. Differences in longevity were analyzed using the Kaplan-Meier survival analysis log rank test, making all pairwise comparisons among treatments.

Drosophila melanogaster [1] = experiment: Concentration trials of erythritol on fly longevity; assay type: in vivo
Description: Standard fly foods were prepared as previously described, and then were treated with 2M, 1M, 0.5M and 0.1M concentrations of erythritol, using 0.5M sucrose as control. 0 to 24 hour-old Drosophila were placed on these foods and mortality was recorded daily for 35 days as above. Analyses were conducted with SPSS software v. 20 (IBM corporation 2011). Fly longevity data were analyzed using survival analysis with right-hand censoring of subjects that lived to the end of the study or were lost for reasons other than death. Test were run for differences in survival distributions [Pr(flies alive) versus insect age] using the log-rank (Mantel-Cox) test to make all pairwise comparisons among treatments within each experiment.

Drosophila melanogaster [2] = experiment: Longevity assay of adult flies raised on food containing sweeteners; assay type: in vivo; details: repeat study with blue dye food
Description: All animals were cultured at 25° C., kept at 50-60% humidity, and were raised under a standard 12:12 light dark cycle. For each experimental treatment, n=30 flies were tested in groups of 10 per tube, and three tubes per treatment. Tubes were kept on their side to minimize subject becoming mired in the food. Foods were replaced twice a week. The total number of fruit flies used for these experiments was 780, with 300 used for two initial trials testing mortality among store-brand sweeteners, 210 used for repeating this with blue dye and pure erythritol, 120 for choice trials and 150 for concentration trials.
Standard Drosophila food for larval culturing consisted of water, cornmeal, yeast, molasses, and agar, as previously described (Chakraborty, et al., 2011, PLoS ONE 6: e20799). […] The addition of cornmeal and yeast assured the flies still received sufficient carbohydrates and protein in addition to any effects of the treatment additives.
Drosophila food was combined with an equal weight/volume (0.0238 g/ml) of one non-nutritive sweetener (TRUVIA, EQUAL, SPLENDA, SWEET'NLOW, or PUREVIA) or a control nutritive sweetener (controls: sucrose or corn syrup). Wild type (Canton S) larvae were initially raised on the standard food, and 0-12 hour old adult flies were transferred to foods containing one non-nutritive sweetener or a control treatment. […] The number of dead flies were scored daily.

humans = details: oral consumption; cited from earlier work
Drosophila melanogaster [3] = experiment: Two-way choice experiments, longevity; assay type: in vivo; details: 30 days
Description: Foods containing 2 M erythritol, 1M erythritol and 1M sucrose were prepared for paired presentations in open choice tests. In each treatment one food type contained 0.05% brilliant blue FCF (Fisher 50-727-25). The blue dye allowed visual confirmation of feeding on the dyed food in the pair. The flies were presented with access to two food choices by using a modified cotton stopper with approximately a 1.5 cm diameter hole to connect each pair of food tubes. […] The final choice treatment was between blue 2M erythritol food and non-blue 1M sucrose food (this treatment provides a comparison with the 1 M erythritol/1 M erythritol treatment as a test of dilution of toxicity by alternative food sources; blue guts would confirm erythritol was being consumed in the presence of sucrose). The number of flies with visible blue gut contents and mortality daily were recorded for 30 days. Analyses were conducted with SPSS software v. 20 (IBM corporation 2011). Fly longevity data were analyzed using survival analysis with right-hand censoring of subjects that lived to the end of the study or were lost for reasons other than death. Test were run for differences in survival distributions [Pr(flies alive) versus insect age] using the log-rank (Mantel-Cox) test to make all pairwise comparisons among treatments within each experiment.

For `OC[C@@H](O)[C@@H](O)[C@H](O)[C@H](O)CO` [D-mannitol], the “longevity compared to sucrose control” value (fruit flies) was “slightly but significantly reduced longevity”.
With `OC[C@@H](O)[C@@H](O)CO` [erythritol, (2R,3S)-butane-1,2,3,4-tetraol] the “longevity compared to control food containing 0.5M sucrose” value (Drosophila melanogaster [1]; 0.1M erythritol in food, observations terminated at 35 days) was “no significant difference in longevity”, the “longevity compared to control food containing 0.5M sucrose” value (Drosophila melanogaster [1]; 0.5M erythritol in food, 35 days) was “significant reductions in longevity” and the “longevity compared to control food containing 0.5M sucrose” value (Drosophila melanogaster [1]; 1M erythritol in food, 35 days) was “significant reductions in longevity”. For the same molecule, the “effect on longevity compared to all other treatments” value (Drosophila melanogaster [1]; 2M erythritol in food, 35 days) was “significant and severe effect on longevity”, the mean fly longevity (fruit flies; mean ± SE) was 4.7 ± 0.15 days and the “longevity, erythritol versus TRUVIA treatment” value (Drosophila melanogaster [2]; 0.0238 g/ml) was “did not differ”. For the same molecule, the “longevity compared to PUREVIA, EQUAL, sucrose and corn syrup” value (Drosophila melanogaster [2]; 0.0238 g/ml of each sweetener) was “significant decreases in longevity”, the “tolerability of consumption by humans” value (humans) was “very well tolerated” and the “longevity relative to sucrose:sucrose choice” value (Drosophila melanogaster [3]; choice between 1M sucrose and 1M erythritol) was “significantly decreased longevity”. For the same molecule, the “longevity relative to sucrose:sucrose choice” value (Drosophila melanogaster [3]; choice between 1M sucrose and 2M erythritol) was “significantly reduced” and the “survival distributions, 2M erythritol/1M sucrose choice versus 1M erythritol/1M erythritol” value (Drosophila melanogaster [3]; choice chamber) was “nearly identical”.
In the case of `OC[C@@H](O)[C@@H](O[C@H]1O[C@H](CO)[C@@H](O)[C@H](O)[C@H]1O)[C@H](O)[C@@H](O)CO` [maltitol], the “longevity compared to sucrose control” value (fruit flies) is reported as “did not differ from the control”.
In the case of `OC[C@@H](O)[C@H](O)[C@@H](O)CO` [xylitol], the “longevity compared to sucrose control” value (fruit flies) is reported as “did not differ from the control”.

From US20200390095A1, “USE OF ERYTHRITOL OR COMPOSITIONS COMPRISING SAME AS MAMMAL-SAFE INSECTICIDES” (Drexel University, priority 2014, published 2020)
